This is an account of results in patent publication US8178579B2, “Dioxanes and uses thereof” (President and Fellows of Harvard College, priority 2001, dated 2012).

“Also recorded” adds a separate entry of the source.

Experiment [1] concerns α-tubulin acetylation in the presence of ITSA1. Put plainly: ITSA1+AcTubulin assay: suppression of induced acetylation by ITSA1. Type of experiment: cell-based, human. The conditions noted are these: ITSA1 50 μM, A549 cells. The protocol:
A549 cells were seeded at a density of 4,000 cells/50 μl in DMEM+ in white tissue culture-treated 384-well plates (Nalge Nunc) using a Multidrop 384 liquid dispenser (Labsystems). Library small molecules were pinned twice (100-150 nl/pin) from ˜1 mM stock solutions (DMSO) and incubated for 18 hours. For the ITSA1+AcTubulin assay, ITSA1 (50 μM) was added four hours after pin-transfer of library molecules. Media was aspirated with a 16-channel wand. […] Plates were read on an Analyst plate reader (LJL Biosystems) with an integration time of 0.1 seconds.
Bromodeoxyuridine labeling and fluorescence-activated cell sorting (FACS) were performed as described (K. M. Koeller et al., Chemistry & Biology, 10 (5) (2003) pp. 397-410). […]

Experiment [2] relates to microtubules in A549 cells. Put plainly: microtubule stability to nocodazole, cold or calcium depolymerization and repolymerization. Type of experiment: cell-based, human. The settings on record: tubacin 2 μM. The protocol: Detection of acetylated α-tubulin and acetylated histones by immunofluorescence was performed as described in Example 6 above. For determining microtubule stability, A549 cells were treated as indicated, fixed in glutaraldehyde, and stained for acetylated α-tubulin and total α-tubulin in antibody dilution buffer (ADB, Tris-buffered saline (TBS), 0.15 M NaCl, 0.02 M Tris-Cl, pH 7.4, with 2% bovine serum albumin and 0.1% Triton-X 100). For cold-depolymerization, cells were incubated at 4° C. or 37° C. for an additional 90 minutes before fixation. For calcium depolymerization, cells were incubated at 37° C. for 10 minutes in a microtubule-stabilizing buffer (0.2% NP-40, 5 mM MgCl2, 2 mM EGTA, 2 M glycerol, 100 mM PIPES, pH 6.8) with and without the addition of CaCl2 (2 mM) before glutaraldehyde fixation. For co-localization experiments, biotubacin (50 μM) treated A549 cells were fixed in 3.7% formaldehyde in TBS and processed as for detecting acetylated α-tubulin (See Example 6 above) with biotubacin detected using streptavidin-TR (1:500). HDAC6 was detected using a rabbit polyclonal antibody (1:250-1:750; C.M.G., unpublished data) under the conditions used to detect acetylated α-tubulin (See Example 6 above). Filamentous actin in HT-1080 cells was detected using TR-conjugated phalloidin (1 μg/mL), and depolymerized actin using FITC-conjugated deoxyribonuclease (10 μg/mL), following fixation in 3.7% formaldehyde in TBS. p58 (1:100) in NIH-3T3 cells was detected after fixation in 3.7% formaldehyde in TBS. Images for these experiments were collected on a Zeiss LSM510 confocal scanning laser microscope at the appropriate wavelengths using the accompanying software and processed with Adobe Photoshop. Deconvoluted serial images of TSA and DMSO treated A549 cells were obtained by taking sections (8μ) on a Zeiss Axioskop 2 microscope using an AxioCam camera and the accompanying software. Rat hippocampal neuronal cultures were fixed at room temperature for 15 min in phosphate-buffered saline (PBS) containing 4% paraformaldehyde. […]

In experiment [3] the test system is α-tubulin. Put plainly: total and tyrosinated α-tubulin levels in cells. Type of experiment: cell-based. The settings on record: tubacin 2 μM, 4 h. The protocol: Detection of acetylated α-tubulin and acetylated histones by immunofluorescence was performed as described in Example 6 above. For determining microtubule stability, A549 cells were treated as indicated, fixed in glutaraldehyde, and stained for acetylated α-tubulin and total α-tubulin in antibody dilution buffer (ADB, Tris-buffered saline (TBS), 0.15 M NaCl, 0.02 M Tris-Cl, pH 7.4, with 2% bovine serum albumin and 0.1% Triton-X 100). For cold-depolymerization, cells were incubated at 4° C. or 37° C. for an additional 90 minutes before fixation. […] For co-localization experiments, biotubacin (50 μM) treated A549 cells were fixed in 3.7% formaldehyde in TBS and processed as for detecting acetylated α-tubulin (See Example 6 above) with biotubacin detected using streptavidin-TR (1:500). HDAC6 was detected using a rabbit polyclonal antibody (1:250-1:750; C.M.G., unpublished data) under the conditions used to detect acetylated α-tubulin (See Example 6 above). Filamentous actin in HT-1080 cells was detected using TR-conjugated phalloidin (1 μg/mL), and depolymerized actin using FITC-conjugated deoxyribonuclease (10 μg/mL), following fixation in 3.7% formaldehyde in TBS. p58 (1:100) in NIH-3T3 cells was detected after fixation in 3.7% formaldehyde in TBS. […]

On to `O=C(CCCCCCC(=O)Nc1ccc([C@@H]2OC(c3ccc(CO)cc3)C[C@H](CSc3nc(-c4ccccc4)c(-c4ccccc4)o3)O2)cc1)NO` (some centres unmarked) [tubacin], for which the “suppression of the induced acetylation by ITSA1” value in experiment [1] is recorded as “partially suppressed by ITSA1”. Further, the “polymerization of microtubules after removal of nocodazole” value in experiment [2] (ITSA1 50 μM) was “neither tubacin nor ITSA1 (50 μM; 30 minutes) prevents the repolymerization of microtubules; also recorded: neither tubacin nor ITSA1 prevented the polymerization of microtubules”. In experiment [2] (nocodazole 332 nM, cold 4 °C 90 min, or 2 mM CaCl2), the “stability of microtubules to depolymerization” value is “No effect of tubacin (2 μM) pre-treatment (4 h) on the stability of microtubules to nocodazole; also recorded: Microtubule depolymerization by nocodazole (332 nM; 5 h) is dominant to the effects of tubacin; also recorded: No effect of tubacin on the stability of microtubules to cold-depolymerization; also recorded: no stabilization of microtubules to any of the depolymerizing conditions tested”. In experiment [3], the “level of total α-tubulin” value was “No effect of tubacin (2 μM) treatment (4 h) on the levels of α-tubulin; also recorded: did not affect the level of total α-tubulin or the level of α-tubulin containing a carboxy-terminal tyrosine” and the “level of tyrosinated α-tubulin” value is “No effect of tubacin (2 μM) treatment (4 h) on the levels of tyrosinated tubulin; also recorded: did not affect the level of total α-tubulin or the level of α-tubulin containing a carboxy-terminal tyrosine”.
